Test in all cases: growth of human tumour cells (NCI), 48 h
For experiment [1], the system named is A549.
The test system of experiment [2] is DLD-1.
Experiment [3] relates to EKVX.
The subject of experiment [4] is HCT-116.
Experiment [5] relates to HCT-15.
In experiment [6] the test system is HL-60.
Experiment [7] concerns HOP-62.
For experiment [8], the system named is LOX IMVI.
Experiment [9] concerns M19-MEL.
For experiment [10], the system named is MOLT-4.
In experiment [11] the test system is NCI-H23.
Experiment [12] has as its system OVCAR-3.
Experiment [13] relates to SF-539.
Experiment [14] concerns SK-MEL-28.
Experiment [15] deals with SK-MEL-5.
Experiment [16] concerns SNB-75.
For experiment [17], the system named is SNB-78.
The subject of experiment [18] is CAKI-1.
The subject of experiment [19] is K562.
Experiment [20] has as its system UO-31.

SMILES strings stand for the structures.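 Grown in 96-well plates, cells were treated for 48 hours with each compound at five concentrations. Insufficient inhibition: endpoint recorded as highest concentration tested. GI50 is the concentration that inhibits growth by half.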 Activity calls are given as the source filed them. Cut-off read from the data, not from the text of the source: active = GI50 up to about 1.1 µM and inactive = higher.

Regarding `CN(CCO)/N=N/c1[nH]cnc1C(N)=O`, the GI50 was > 100 µM (inactive) in experiment [1]; > 100 µM (inactive) in experiment [2]; > 100 µM (inactive) in [3]; 49.5 µM (inactive) in experiment [4]; greater than 100 µM in experiment [5]; 79.3 µM (inactive) in [6]. Besides, the GI50 in experiment [7] was 74 µM (inactive); in [8], 26.2 µM (inactive); in experiment [9], > 100 µM (inactive); in experiment [10], > 100 µM (inactive); in [11] it was > 100 µM (inactive); in experiment [12] it was > 100 µM (inactive). In addition, the GI50 was > 100 µM (inactive) in experiment [13]; > 100 µM (inactive) in experiment [14]; > 100 µM (inactive) in experiment [15]; 26.8 µM (inactive) in experiment [16]; > 100 µM (inactive) in experiment [17].

Regarding `O=C(Nc1ccccc1)N1CCN(C(=O)Nc2ccccc2)C1=S`, the GI50 in experiment [1] was > 100 µM (inactive); in experiment [18], 41.7 µM (inactive); in [3], > 100 µM (inactive); in experiment [4], 47.6 µM (inactive); in experiment [5] it was 88.5 µM; in [6], 29.3 µM (inactive). Moreover, the GI50 was 25.2 µM (inactive) in experiment [7]; > 100 µM (inactive) in experiment [19]; > 100 µM (inactive) in experiment [8]; > 100 µM (inactive) in experiment [10]; 22.3 µM (inactive) in [11]; > 100 µM (inactive) in [12]. In addition, the GI50 in [13] was 18.5 µM (inactive); in experiment [14], > 100 µM (inactive); in experiment [15], > 100 µM (inactive); in experiment [16] it was 17.9 µM (inactive); in experiment [20] it was 23.7 µM (inactive).

Take `COc1cc(C2c3cc4c(cc3[C@@H](Nc3ccccc3)C3COC(=O)[C@H]23)OCO4)cc(OC)c1O` (some centres undefined): the GI50 in experiment [1] was 0.0156 µM (active); in experiment [18] it was 0.134 µM (active); in [2], 1.66 µM (inactive); in [3] it was 1.96 µM (inactive); in experiment [4] it was 0.391 µM (active); in experiment [5] it was 0.417 µM. The GI50 in experiment [6] is 0.14 µM (active); in [7], 0.155 µM (active); in [19], 0.931 µM (active); in experiment [8], 0.414 µM (active); in [9], 1.55 µM (inactive); in experiment [10], < 0.01 µM (active). Moreover, the GI50 is 0.238 µM (active) in experiment [11]; 2.48 µM (inactive) in experiment [12]; 0.322 µM (active) in experiment [13]; 2.72 µM (inactive) in [14]; 0.787 µM (active) in [15]; 0.875 µM (active) in [16]. The values for the GI50 in [17] and in [20] were 2.37 µM (inactive) and 0.531 µM (active), respectively.

Regarding `COC(=O)/C=C\n1ncc(=O)[nH]c1=O`, the GI50 in experiment [1] is > 100 µM (inactive); in [18], > 100 µM (inactive); in experiment [3], > 100 µM (inactive); in experiment [5], greater than 100 µM; in [6], > 100 µM (inactive); in experiment [7] it was > 100 µM (inactive). Besides, the GI50 in [19], in [10], in [11], in experiment [12], in experiment [14] and in experiment [15] was > 100 µM (inactive) throughout. Also, the GI50 in [16] and in experiment [20] was > 100 µM (inactive) throughout.

On to `N#CCCN(CCC#N)c1ccc(/C=C(/NC(=O)Nc2ccccc2Cl)NC(=O)c2cc([N+](=O)[O-])ccc2Cl)cc1`, for which the GI50 in experiment [1] was > 100 µM (inactive); in experiment [18], > 100 µM (inactive); in experiment [2], 56.1 µM (inactive); in experiment [3] it was > 100 µM (inactive); in experiment [4], > 100 µM (inactive); in [5], greater than 100 µM. Moreover, the GI50 in experiment [7] is > 100 µM (inactive); in experiment [19] it was 64.6 µM (inactive); in experiment [8], > 100 µM (inactive); in experiment [9], > 100 µM (inactive); in experiment [10] it was 42 µM (inactive); in [12] it was > 100 µM (inactive). In addition, the GI50 in experiment [13] was > 100 µM (inactive); in [14], > 100 µM (inactive); in [15], > 100 µM (inactive); in [17] it was > 100 µM (inactive); in [20] it was 55.7 µM (inactive).

As to `Nc1nc(SCCC/C=C/I)nc2c1ncn2C1OC(COP(=O)(O)O)C(O)C1O` (centres undefined), the GI50 in experiment [1] was > 100 µM (inactive); in [2] it was > 100 µM (inactive); in [3], > 100 µM (inactive); in [4], > 100 µM (inactive); in experiment [5], greater than 100 µM; in [6], > 100 µM (inactive). The GI50 in [7], in experiment [19], in experiment [8], in [9], in experiment [10] and in experiment [11] was > 100 µM (inactive) each time. Also, the GI50 in experiment [12], in experiment [13], in [14], in experiment [15], in [16] and in [17] was > 100 µM (inactive) each time.

On to `CCOC(=O)COc1ccc(OC)c2c1C(=O)CCC2`, for which the GI50 was > 100 µM (inactive) in [1]; > 100 µM (inactive) in [3]; > 100 µM (inactive) in experiment [4]; greater than 100 µM in experiment [5]; > 100 µM (inactive) in experiment [6]; > 100 µM (inactive) in experiment [19]. Further, the GI50 in experiment [8], in experiment [9], in experiment [10], in experiment [11], in experiment [12] and in [13] was > 100 µM (inactive) each time. In addition, the GI50 in experiment [14], in [15], in [16] and in experiment [17] was > 100 µM (inactive) each time.

Consider `C=C(C)C1Cc2c(c3ccccc3n(C)c2=O)O1` (centres undefined), for which the GI50 in experiment [18] is > 100 µM (inactive); in experiment [2] it was > 100 µM (inactive); in experiment [3] it was > 100 µM (inactive); in [5] it was greater than 100 µM; in [6] it was > 100 µM (inactive); in experiment [7], < 0.01 µM (active). The GI50 in [19], in [8], in [9], in experiment [10], in [11] and in [12] was > 100 µM (inactive) throughout. Moreover, the GI50 in [13], in experiment [14], in [15], in experiment [16], in experiment [17] and in [20] was > 100 µM (inactive) throughout.

Regarding `Cn1c(=O)c2nc(NCCO)cnc2n(C)c1=O`, the GI50 in [1] is > 100 µM (inactive); in [18], 95.5 µM (inactive); in experiment [2], > 100 µM (inactive); in experiment [3], > 100 µM (inactive); in experiment [4], 62.8 µM (inactive); in experiment [5], 85.9 µM. Besides, the GI50 was 27.2 µM (inactive) in experiment [6]; 71.1 µM (inactive) in experiment [7]; 44.2 µM (inactive) in [19]; 56.5 µM (inactive) in [9]; > 100 µM (inactive) in experiment [10]; > 100 µM (inactive) in [11]. Also, the GI50 in [12] is 23.3 µM (inactive); in experiment [13], 31.8 µM (inactive); in [14], > 100 µM (inactive); in experiment [15], > 100 µM (inactive); in experiment [16], 8.73 µM (inactive); in [17], > 100 µM (inactive). Further, in experiment [20], the GI50 was 48.9 µM (inactive).

For `CCOC(=O)c1csc(NC(=O)CN2CCN(c3ccccc3)CC2)n1`, the GI50 was > 100 µM (inactive) in experiment [1]; > 100 µM (inactive) in [18]; > 100 µM (inactive) in experiment [3]; greater than 100 µM in experiment [5]; 70.6 µM (inactive) in experiment [6]; > 100 µM (inactive) in experiment [7]. In addition, the GI50 in [19] was > 100 µM (inactive); in [8], > 100 µM (inactive); in experiment [10], 45.6 µM (inactive); in experiment [11] it was > 100 µM (inactive); in [12], > 100 µM (inactive); in experiment [14], > 100 µM (inactive). The results for the GI50 in experiment [15], in experiment [16] and in experiment [20] were 34.8 µM (inactive), 38.4 µM (inactive) and > 100 µM (inactive), respectively.

In the case of `CC(=O)Nc1ccc(Sc2nnc(NC(C)=O)s2)cc1`, the GI50 was > 100 µM (inactive) in experiment [1]; > 100 µM (inactive) in experiment [3]; > 100 µM (inactive) in [4]; greater than 100 µM in [5]; > 100 µM (inactive) in experiment [6]; > 100 µM (inactive) in [7]. The GI50 in experiment [19], in experiment [10], in experiment [13], in experiment [14], in experiment [15] and in experiment [16] was > 100 µM (inactive) in each case. For the same compound, the GI50 in experiment [20] was > 100 µM (inactive).

For the origin of these results see ChEMBL document CHEMBL1201862, “PubChem BioAssay data set” (2004).
